Results taken from patent US20240218022A1, “ANTI-VISTA MACROCYCLIC PEPTIDES AND COMPOSITIONS” (BRISTOL-MYERS SQUIBB COMPANY, priority 2022, published 2024).
Where two headings read alike, the source gives them in different places. Starred links: 1 amine or outer side, 2 acyl side, 3 side chain; linkers in the order of their positions; H or OH if unused. Positions of bridges follow the written chain, without caps; N, C: chain ends. Non-standard residues stand in square brackets, D forms with d. Residues, ends and D or L forms follow the SMILES beside them. Phe(4-CONH2) = NC(=O)c1ccc(C[C@H](N)C(=O)O)cc1; Phe(3-Me) = Cc1cccc(C[C@H](N)C(=O)O)c1; 2Nal = N[C@@H](Cc1ccc2ccccc2c1)C(=O)O; βAsp = O=C(O)[C@H](CC(=O)[*:2])N[*:1]; Phe(2-Me) = Cc1ccccc1C[C@H](N)C(=O)O; Tic = O=C(O)[C@@H]1Cc2ccccc2CN1; Cit = NC(=O)NCCC[C@H](N)C(=O)O; Ahp(2) = CCCCC[C@H](N)C(=O)O; NMeNle = CCCC[C@H](NC)C(=O)O; Tle = CC(C)(C)[C@H](N)C(=O)O; NHexGly = CCCCCCNCC(=O)O; Nle = CCCC[C@H](N)C(=O)O; Orn = NCCC[C@H](N)C(=O)O; Aun = NCCCCCCCCCCC(=O)O; AEEA = NCCOCCOCC(=O)O

Molecular target: T1, mouse VISTA (mVISTA) (Mus musculus, UniProt Q9D659)
T1 construct: expressed in transfected cells; host or cells: Human embryonic kidney 293T cells
T1 sequence (Q9D659 33-308): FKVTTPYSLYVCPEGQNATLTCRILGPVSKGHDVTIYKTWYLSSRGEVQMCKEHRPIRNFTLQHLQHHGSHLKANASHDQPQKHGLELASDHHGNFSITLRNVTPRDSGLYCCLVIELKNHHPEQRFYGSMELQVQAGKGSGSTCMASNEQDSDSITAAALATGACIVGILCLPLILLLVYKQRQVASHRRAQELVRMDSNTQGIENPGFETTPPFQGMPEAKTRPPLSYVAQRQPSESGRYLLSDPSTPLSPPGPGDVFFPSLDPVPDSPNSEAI
Experiment: Cell-Based Binding High-Content Assay For mVISTA (HC CBA mVISTA)
Method in brief: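 Competition of compound with a biotinylated peptide (final 2 nM, 30 min at RT) for binding to mVISTA on 293T cells, run under no-wash or wash (1 h compound preincubation then removal) formats. Readout by Alexa 647–streptavidin imaging on a high-content platform; four-parameter logistic fit gave IC50.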

[1] = cell-based binding high-content assay, mVISTA, read-out: HC CBA miPrISTA IC50
[2] = 293T cells expressing mouse VISTA, competition with biotinylated peptide (2 nM), read-out: HC CBA mVISTA IC50
[3] = the 19th table, scaffold drawing 22, read-out: HC CBA mVISTA IC50

CCCCCCN1CC(=O)N[C@@H](Cc2ccc(O)cc2)C(=O)N[C@@H](CCCCC)C(=O)N[C@@H](CC(N)=O)C(=O)N[C@@H](CCCNC(=N)N)C(=O)N[C@@H](CC(C)C)C(=O)N[C@@H](CCCCC)C(=O)N2CCC[C@H]2C(=O)N[C@@H](C(C)C)C(=O)N[C@@H](CO)C(=O)N[C@H](C(=O)NCC(N)=O)CSCC(=O)N[C@@H](Cc2ccccc2)C(=O)N[C@@H](Cc2c[nH]c3ccccc23)C(=O)N[C@@H](CC(=O)O)C1=O [Example 1354] ({CH2CO}-FWD[NHexGly]Y[Ahp(2)]NRL[Ahp(2)]PVSCG-NH2; thioether N-14)
IC50 (read-out: HC CBA mVISTA IC50): 20.3 nM

CCCCCCN1CC(=O)N[C@@H](Cc2ccc(O)cc2)C(=O)N[C@@H](CC(C)C)C(=O)N[C@@H](CC(N)=O)C(=O)N[C@@H](CCCNC(=N)N)C(=O)N(C)[C@@H](CCCC)C(=O)N[C@@H](CCCCC)C(=O)N2CCC[C@H]2C(=O)N[C@@H](C(C)(C)C)C(=O)N[C@@H](CO)C(=O)N[C@H](C(=O)N[C@@H](CC(=O)NCCOCCOCC(=O)N[C@@H](CC(=O)O)C(=O)NCCOCCOCC(=O)NCCCCCCCCCCC(=O)O)C(=O)O)CSCC(=O)N[C@@H](Cc2ccc(C(N)=O)cc2)C(=O)N[C@@H](Cc2ccc(O)cc2)C(=O)N[C@@H](CC(=O)O)C1=O [compound 2087] ({CH2CO}-[Phe(4-CONH2)]YD[NHexGly]YLNR[NMeNle][Ahp(2)]P[Tle]SC[βAsp][AEEA]D[AEEA][Aun]-OH; thioether N-14)
IC50 [1]: 28.8 nM

CCCCCCN1CC(=O)N[C@@H](Cc2ccc(O)cc2)C(=O)N[C@@H](CCCC)C(=O)N[C@@H](CC(N)=O)C(=O)N[C@@H](CCCNC(=N)N)C(=O)N(C)[C@@H](CCCC)C(=O)N[C@@H](CCCCC)C(=O)N2CCC[C@H]2C(=O)N[C@@H](C(C)(C)C)C(=O)N[C@@H](CC(=O)O)C(=O)N[C@H](C(=O)N[C@@H](CC(N)=O)C(=O)NCCOCCOCC(=O)NCCCCCCCCCCC(=O)O)CSCC(=O)N[C@@H](Cc2ccccc2)C(=O)N[C@@H](Cc2c[nH]c3ccccc23)C(=O)N[C@@H](CC(=O)O)C1=O [Example 2338] ({CH2CO}-FWD[NHexGly]Y[Nle]NR[NMeNle][Ahp(2)]P[Tle]DCN[AEEA][Aun]-OH; thioether N-14)
IC50 (cell-based binding high-content assay, read-out: HC CBA mVISTA IC50): 52 nM

CCCCCCN1CC(=O)N[C@@H](Cc2ccc(O)cc2)C(=O)N[C@@H](CC(C)C)C(=O)NCC(=O)N[C@@H](CCCNC(=N)N)C(=O)N[C@@H](Cc2ccc(O)cc2)C(=O)N[C@@H](CCCCC)C(=O)N2CCC[C@H]2C(=O)N[C@@H](C(C)C)C(=O)N[C@@H](CO)C(=O)N[C@H](C(=O)NCC(N)=O)CSCC(=O)N[C@@H](Cc2ccccc2)C(=O)N[C@@H](Cc2ccc(O)cc2)C(=O)N[C@@H](CC(=O)O)C1=O [Example 1094] ({CH2CO}-FYD[NHexGly]YLGRY[Ahp(2)]PVSCG-NH2; thioether N-14)
IC50 [2]: 34.9 nM

CCCCCCN1CC(=O)N[C@@H](Cc2ccc(O)cc2)C(=O)N[C@@H](C)C(=O)N[C@@H](CC(N)=O)C(=O)N[C@@H](CCCNC(=N)N)C(=O)N(C)[C@@H](CCCC)C(=O)N[C@@H](CCCCC)C(=O)N2CCC[C@H]2C(=O)N[C@@H](C(C)(C)C)C(=O)N[C@@H](CO)C(=O)N[C@H](C(=O)N[C@@H](CC(=O)NCCOCCOCC(=O)N[C@@H](CC(=O)O)C(=O)NCCOCCOCC(=O)NCCCCCCCCCCC(=O)O)C(=O)O)CSCC(=O)N[C@@H](Cc2ccccc2)C(=O)N[C@@H](Cc2c[nH]c3ccccc23)C(=O)N[C@@H](CC(=O)O)C1=O [compound 2098] ({CH2CO}-FWD[NHexGly]YANR[NMeNle][Ahp(2)]P[Tle]SC[βAsp][AEEA]D[AEEA][Aun]-OH; thioether N-14)
IC50 [1]: 36.6 nM

CCCCCCN1CC(=O)N[C@@H](Cc2ccc(O)cc2)C(=O)N[C@@H](CCCC)C(=O)N[C@@H](CC(N)=O)C(=O)N[C@@H](CCCNC(N)=O)C(=O)N2Cc3ccccc3C[C@H]2C(=O)N[C@@H](CCCCC)C(=O)N2CCC[C@H]2C(=O)N[C@@H](C(C)C)C(=O)N[C@@H](CO)C(=O)N[C@H](C(=O)NCC(N)=O)CSCC(=O)N[C@@H](Cc2ccccc2)C(=O)N[C@@H](Cc2c[nH]c3ccccc23)C(=O)N[C@@H](CC(=O)O)C1=O [Example 1413] ({CH2CO}-FWD[NHexGly]Y[Nle]N[Cit][Tic][Ahp(2)]PVSCG-NH2; thioether N-14)
IC50 (read-out: HC CBA mVISTA IC50): 18.9 nM

CCCCCCN1CC(=O)N[C@@H](Cc2ccc(O)cc2)C(=O)N[C@@H](CCCC)C(=O)N[C@@H](CC(N)=O)C(=O)N[C@@H](CCCNC(=N)N)C(=O)N(C)[C@@H](CCCC)C(=O)N[C@@H](CCCCC)C(=O)N2CCC[C@H]2C(=O)N[C@@H](C(C)C)C(=O)N[C@@H](CC(=O)O)C(=O)N[C@H](C(=O)NCC(=O)O)CSCC(=O)N[C@@H](Cc2ccc3ccccc3c2)C(=O)N[C@@H](Cc2cccc(C)c2)C(=O)N[C@@H](CC(=O)O)C1=O [compound 1200] ({CH2CO}-[2Nal][Phe(3-Me)]D[NHexGly]Y[Nle]NR[NMeNle][Ahp(2)]PVDCG-OH; thioether N-14)
IC50 (read-out: HC CBA mVISTA IC50): 44.8 nM

CCCCCCN1CC(=O)N[C@@H](Cc2ccc(O)cc2)C(=O)N[C@@H](CCCCC)C(=O)NCC(=O)N[C@@H](CCCNC(=N)N)C(=O)N[C@@H](CC(C)C)C(=O)N[C@@H](CCCCC)C(=O)N2CCC[C@H]2C(=O)N[C@@H](C(C)C)C(=O)N[C@@H](CO)C(=O)N[C@H](C(=O)NCC(N)=O)CSCC(=O)N[C@@H](Cc2ccc3ccccc3c2)C(=O)N[C@@H](Cc2ccc(O)cc2)C(=O)N[C@@H](CC(=O)O)C1=O [Ex 1273] ({CH2CO}-[2Nal]YD[NHexGly]Y[Ahp(2)]GRL[Ahp(2)]PVSCG-NH2; thioether N-14)
IC50 (cell-based binding high-content assay, mVISTA, the 16th table, read-out: HC CBA mVISTA IC50): 14.3 nM

CCCCCCN1CC(=O)N[C@@H](Cc2ccc(O)cc2)C(=O)N[C@@H](CCCCC)C(=O)NCC(=O)N[C@@H](CCCNC(N)=O)C(=O)N[C@@H](CC(C)C)C(=O)N[C@@H](CCCCC)C(=O)N2CCC[C@H]2C(=O)N[C@@H](C(C)C)C(=O)N[C@@H](CO)C(=O)N[C@H](C(=O)NCC(N)=O)CSCC(=O)N[C@@H](Cc2ccccc2)C(=O)N[C@@H](Cc2ccc(O)cc2)C(=O)N[C@@H](CC(=O)O)C1=O [Example 1064] ({CH2CO}-FYD[NHexGly]Y[Ahp(2)]G[Cit]L[Ahp(2)]PVSCG-NH2; thioether N-14)
IC50 [2]: 9.3 nM

CCCCCCN1CC(=O)N[C@@H](Cc2ccc(O)cc2)C(=O)N[C@@H](CC(C)C)C(=O)N[C@@H](CC(N)=O)C(=O)N[C@@H](CCCNC(=N)N)C(=O)N(C)[C@@H](CCCC)C(=O)N[C@@H](CCCCC)C(=O)N2CCC[C@H]2C(=O)N[C@@H](C(C)(C)C)C(=O)N[C@@H](CO)C(=O)N[C@H](C(=O)NCC(N)=O)CSCC(=O)N[C@@H](Cc2ccccc2C)C(=O)N[C@@H](Cc2ccc(O)cc2)C(=O)N[C@@H](CC(=O)O)C1=O [compound 1205] ({CH2CO}-[Phe(2-Me)]YD[NHexGly]YLNR[NMeNle][Ahp(2)]P[Tle]SCG-NH2; thioether N-14)
IC50 (read-out: HC CBA mVISTA IC50): 16.4 nM

CCCCCCN1CC(=O)N[C@@H](Cc2ccc(O)cc2)C(=O)N[C@@H](CCCC)C(=O)N[C@@H](CC(=O)O)C(=O)N[C@@H](CCCNC(=N)N)C(=O)N(C)[C@@H](CCCC)C(=O)N[C@@H](CCCCC)C(=O)N2CCC[C@H]2C(=O)N[C@@H](C(C)C)C(=O)N[C@@H](CC(=O)O)C(=O)N[C@H](C(=O)N[C@H](CC(=O)O)C(N)=O)CSCC(=O)N[C@@H](Cc2ccccc2)C(=O)N[C@@H](Cc2ccc(O)cc2)C(=O)N[C@@H](CC(=O)O)C1=O [Example 1075] ({CH2CO}-FYD[NHexGly]Y[Nle]DR[NMeNle][Ahp(2)]PVDC[dD]-NH2; thioether N-14)
IC50 (293T cells expressing mouse VISTA, competition with biotinylated peptide (2 nM), read-out: CBA mVISTA IC50): 19.1 nM

CCCCCCN1CC(=O)N[C@@H](Cc2ccc(O)cc2)C(=O)N[C@@H](CC(C)C)C(=O)N[C@@H](CC(N)=O)C(=O)N[C@@H](CCCNC(=N)N)C(=O)N[C@@H](CC(C)C)C(=O)N[C@@H](CCCCC)C(=O)N2CCC[C@H]2C(=O)N[C@@H](C(C)C)C(=O)N[C@@H](C(C)C)C(=O)N[C@H](C(=O)NCC(=O)O)CSCC(=O)N[C@@H](Cc2cccc(C)c2)C(=O)N[C@@H](Cc2c[nH]c3ccccc23)C(=O)N[C@@H](CC(=O)O)C1=O [compound 1422] ({CH2CO}-[Phe(3-Me)]WD[NHexGly]YLNRL[Ahp(2)]PVVCG-OH; thioether N-14)
IC50 [3]: 4.2 nM

CCCCCCN1CC(=O)N[C@@H](Cc2ccc(O)cc2)C(=O)N[C@@H](CCCC)C(=O)N[C@@H](CC(=O)O)C(=O)N[C@@H](CCCN)C(=O)N[C@@H](CC(C)C)C(=O)N[C@@H](CCCCC)C(=O)N2CCC[C@H]2C(=O)N[C@@H](C(C)C)C(=O)N[C@@H](CC(=O)O)C(=O)N[C@H](C(=O)N[C@@H](CO)C(N)=O)CSCC(=O)N[C@@H](Cc2ccc3ccccc3c2)C(=O)N[C@@H](Cc2c[nH]c3ccccc23)C(=O)N[C@@H](CC(=O)O)C1=O [compound 1236] ({CH2CO}-[2Nal]WD[NHexGly]Y[Nle]D[Orn]L[Ahp(2)]PVDCS-NH2; thioether N-14)
IC50 (cell-based binding high-content assay, mVISTA, the 15th table, read-out: HC CBA mVISTA IC50): 27.7 nM

CCCCCCN1CC(=O)N[C@@H](Cc2ccc(O)cc2)C(=O)N[C@@H](CCCC)C(=O)N[C@@H](CC(N)=O)C(=O)N[C@@H](CCCNC(N)=O)C(=O)N(C)[C@@H](CCCC)C(=O)N[C@@H](CCCCC)C(=O)N2CCC[C@H]2C(=O)N[C@@H](C(C)C)C(=O)N[C@@H](CC(=O)O)C(=O)N[C@H](C(=O)NCC(=O)O)CSCC(=O)N[C@@H](Cc2cccc(C)c2)C(=O)N[C@@H](Cc2c[nH]c3ccccc23)C(=O)N[C@@H](CC(=O)O)C1=O [compound 1443] ({CH2CO}-[Phe(3-Me)]WD[NHexGly]Y[Nle]N[Cit][NMeNle][Ahp(2)]PVDCG-OH; thioether N-14)
IC50 [3]: 21.2 nM
